Data: patent US20090118286A1, “Heterobicyclic Acrylamides” (Bayer Cropscience AG, priority 2005, published 2009)

Assay: log P determination by HPLC (EEC Directive 79/831 Annex V.A8, gradient method)
Format: physicochemical

Point of comparison: CC(ONC(=O)/C=C/c1c(-c2cccc(C(F)(F)F)c2)nc2sc(C(F)(F)F)nn12)c1ccccc1 (stereo not drawn) [Example 0426], “Physical data: log P” value 4.37. Against it:
- CCC(CC)NC(=O)/C=C/c1c(-c2cccc(C(F)(F)F)c2)nc2sc(C(F)(F)F)nn12 [Example 0428] — within 0.2 log units, 4.41
- CN(C)C(=O)/C=C/c1c(-c2cccc(C(F)(F)F)c2)nc2sc(C(F)(F)F)nn12 [Example 0429] — lower, 3.68
- CCN(C)C(=O)/C=C/c1c(-c2cccc(C(F)(F)F)c2)nc2sc(C(F)(F)F)nn12 [Example 0430] — lower, 4.05
- C=CCN(C)C(=O)/C=C/c1c(-c2cccc(C(F)(F)F)c2)nc2sc(C(F)(F)F)nn12 [Example 0431] — within 0.2 log units, 4.22
- CON(C)C(=O)/C=C/c1c(-c2cccc(C(F)(F)F)c2)nc2sc(C(F)(F)F)nn12 [Example 0433] — lower, 4.01
- CCN(CC)C(=O)/C=C/c1c(-c2cccc(C(F)(F)F)c2)nc2sc(C(F)(F)F)nn12 [Example 0434] — within 0.2 log units, 4.42
- O=C(/C=C/c1c(-c2cccc(C(F)(F)F)c2)nc2sc(C(F)(F)F)nn12)N1CCCCC1 [Example 0435] — within 0.2 log units, 4.51
- O=C(/C=C/c1c(-c2cccc(C(F)(F)F)c2)nc2sc(C(F)(F)F)nn12)N1CCOCC1 [Example 0436] — lower, 3.55
- CC(C)(C)NC(=O)/C=C/c1c(-c2ccccc2F)nc2sc(C(F)(F)F)nn12 [Example 0444] — lower, 3.55
- CCN(CC)C(=O)/C=C/c1c(-c2ccccc2F)nc2sc(C(F)(F)F)nn12 [Example 0505] — lower, 3.45
- O=C(/C=C/c1c(-c2ccccc2F)nc2sc(C(F)(F)F)nn12)N1CCCCC1 [Example 0506] — lower, 3.59
- O=C(/C=C/c1c(-c2ccccc2F)nc2sc(C(F)(F)F)nn12)N1CCOCC1 [Example 0507] — lower, 2.7
- CC(COc1ccccc1)NC(=O)/C=C/c1c(-c2ccc(Cl)cc2Cl)nc2sc(C(F)(F)F)nn12 (stereo not drawn) [Example 0546] — within 0.2 log units, 4.56
- CC(NC(=O)/C=C/c1c(-c2ccc(Cl)cc2Cl)nc2sc(C(F)(F)F)nn12)c1ccccn1 (stereo not drawn) [Example 0555] — lower, 2.84
- O=C(/C=C/c1c(-c2ccc(Cl)cc2Cl)nc2sc(C(F)(F)F)nn12)NOCC1CC1 [Example 0563] — lower, 3.68
- CC(ONC(=O)/C=C/c1c(-c2ccc(Cl)cc2Cl)nc2sc(C(F)(F)F)nn12)c1ccccc1 (stereo not drawn) [Example 0565] — within 0.2 log units, 4.23
- CCC(CC)NC(=O)/C=C/c1c(-c2ccc(Cl)cc2Cl)nc2sc(C(F)(F)F)nn12 [Example 0567] — within 0.2 log units, 4.32
- CN(C)C(=O)/C=C/c1c(-c2ccc(Cl)cc2Cl)nc2sc(C(F)(F)F)nn12 [Example 0568] — lower, 3.46
- CCN(C)C(=O)/C=C/c1c(-c2ccc(Cl)cc2Cl)nc2sc(C(F)(F)F)nn12 [Example 0569] — lower, 3.82
- C=CCN(C)C(=O)/C=C/c1c(-c2ccc(Cl)cc2Cl)nc2sc(C(F)(F)F)nn12 [Example 0570] — lower, 4.0
- CON(C)C(=O)/C=C/c1c(-c2ccc(Cl)cc2Cl)nc2sc(C(F)(F)F)nn12 [Example 0572] — lower, 3.8
- O=C(/C=C/c1c(-c2ccc(Cl)cc2Cl)nc2sc(C(F)(F)F)nn12)N1CCCCC1 [Example 0574] — within 0.2 log units, 4.31
- O=C(/C=C/c1c(-c2ccc(Cl)cc2Cl)nc2sc(C(F)(F)F)nn12)N1CCOCC1 [Example 0575] — lower, 3.34
- O=C(C=Cc1c(-c2ccc(F)cc2Cl)nc2sc(C(F)(F)F)nn12)NC1CCCCC1C(F)(F)F (stereo not drawn) [Example 0600] — lower, 4.12
- O=C(C=Cc1c(-c2ccc(F)cc2Cl)nc2sc(C(F)(F)F)nn12)NC(CC(F)(F)F)c1ccccc1 (stereo not drawn) [Example 0609] — within 0.2 log units, 4.25

Point of comparison: COc1ccc(-c2nc3sc(C(F)(F)F)nn3c2/C=C/C(=O)NC(C)C(F)(F)F)cc1OC (stereo not drawn) [Example 0669], “Physical data: logP” value 3.29. Against it:
- CCN(CC)C(=O)/C=C/c1c(-c2ccc(F)cc2Cl)nc2sc(C(F)(F)F)nn12 [Example 0644] — higher, 3.79
- O=C(/C=C/c1c(-c2ccc(F)cc2Cl)nc2sc(C(F)(F)F)nn12)N1CCCC(C(F)(F)F)C1 (stereo not drawn) [Example 0648] — higher, 4.28
- COc1ccc(-c2nc3sc(C(F)(F)F)nn3c2/C=C/C(=O)NC(C)C)cc1OC [Example 0652] — lower, 2.85
- COc1ccc(-c2nc3sc(C(F)(F)F)nn3c2/C=C/C(=O)NC2CC2)cc1OC [Example 0656] — lower, 2.64
- COc1ccc(-c2nc3sc(C(F)(F)F)nn3c2/C=C/C(=O)NC2CCC2)cc1OC [Example 0657] — lower, 3.03
- COc1ccc(-c2nc3sc(C(F)(F)F)nn3c2/C=C/C(=O)NC2CCCC2)cc1OC [Example 0658] — within 0.2 log units, 3.26
- COc1ccc(-c2nc3sc(C(F)(F)F)nn3c2/C=C/C(=O)NC2CCCCC2)cc1OC [Example 0659] — higher, 3.55
- COc1ccc(-c2nc3sc(C(F)(F)F)nn3c2/C=C/C(=O)NCC2CC2)cc1OC [Example 0660] — lower, 2.95
- CCC(C)NC(=O)/C=C/c1c(-c2ccc(OC)c(OC)c2)nc2sc(C(F)(F)F)nn12 (stereo not drawn) [Example 0661] — within 0.2 log units, 3.14
- CCCC(C)NC(=O)/C=C/c1c(-c2ccc(OC)c(OC)c2)nc2sc(C(F)(F)F)nn12 (stereo not drawn) [Example 0662] — higher, 3.5
- COCC(C)NC(=O)/C=C/c1c(-c2ccc(OC)c(OC)c2)nc2sc(C(F)(F)F)nn12 (stereo not drawn) [Example 0663] — lower, 2.7
- COc1ccc(-c2nc3sc(C(F)(F)F)nn3c2/C=C/C(=O)NC(C)C(C)C)cc1OC (stereo not drawn) [Example 0668] — within 0.2 log units, 3.41
- COc1ccc(-c2nc3sc(C(F)(F)F)nn3c2/C=C/C(=O)NC(C)c2ccccc2)cc1OC (stereo not drawn) [Example 0683] — higher, 3.5
- CCC(NC(=O)/C=C/c1c(-c2ccc(OC)c(OC)c2)nc2sc(C(F)(F)F)nn12)c1ccccc1 (stereo not drawn) [Example 0684] — higher, 3.76
- COc1ccc(-c2nc3sc(C(F)(F)F)nn3c2/C=C/C(=O)NC(C)COc2ccccc2)cc1OC (stereo not drawn) [Example 0689] — higher, 3.72
- CCC(NC(=O)/C=C/c1c(-c2ccc(OC)c(OC)c2)nc2sc(C(F)(F)F)nn12)C1CCCCC1 (stereo not drawn) [Example 0691] — higher, 4.46
- COc1ccc(-c2nc3sc(C(F)(F)F)nn3c2/C=C/C(=O)NC(C)c2ccccn2)cc1OC (stereo not drawn) [Example 0698] — lower, 2.16
- COc1ccc(-c2nc3sc(C(F)(F)F)nn3c2/C=C/C(=O)NOCC2CC2)cc1OC [Example 0706] — lower, 2.88
- COc1ccc(-c2nc3sc(C(F)(F)F)nn3c2/C=C/C(=O)NOC(C)c2ccccc2)cc1OC (stereo not drawn) [Example 0708] — within 0.2 log units, 3.37
- CCC(CC)NC(=O)/C=C/c1c(-c2ccc(OC)c(OC)c2)nc2sc(C(F)(F)F)nn12 [Example 0710] — within 0.2 log units, 3.37
- CCN(CC)C(=O)/C=C/c1c(-c2ccc(OC)c(OC)c2)nc2sc(C(F)(F)F)nn12 [Example 0716] — higher, 3.53
- COc1ccc(-c2nc3sc(C(F)(F)F)nn3c2/C=C/C(=O)N2CCCCC2)cc1OC [Example 0717] — within 0.2 log units, 3.41
- COc1ccc(-c2nc3sc(C(F)(F)F)nn3c2/C=C/C(=O)N2CCOCC2)cc1OC [Example 0718] — lower, 2.58
- CC(C)CNC(=O)/C=C/c1c(-c2ccccc2Cl)nc2sc(C(C)(C)C)nn12 [Example 0794] — higher, 3.72
- CC(NC(=O)/C=C/c1c(-c2ccccc2Cl)nc2sc(C(C)(C)C)nn12)C(F)(F)F (stereo not drawn) [Example 0795] — higher, 3.88
- CC(C)C(NC(=O)/C=C/c1c(-c2ccccc2Cl)nc2sc(C(C)(C)C)nn12)C(F)(F)F (stereo not drawn) [Example 0796] — higher, 4.46
- CC(C)(C)CNC(=O)/C=C/c1c(-c2ccccc2Cl)nc2sc(C(C)(C)C)nn12 [Example 0797] — higher, 4.06
- CC(C)CCNC(=O)/C=C/c1c(-c2ccccc2Cl)nc2sc(C(C)(C)C)nn12 [Example 0798] — higher, 4.11
- CC(C)(C)c1nn2c(/C=C/C(=O)NC3CCC(C(F)(F)F)CC3)c(-c3ccccc3Cl)nc2s1 (stereo not drawn) [Example 0799] — higher, 4.32
- CC(C)(C)c1nn2c(/C=C/C(=O)NCC(F)(F)F)c(-c3ccccc3Cl)nc2s1 [Example 0800] — higher, 3.61
- CC(C)(C)NC(=O)/C=C/c1c(-c2ccccc2Cl)nc2sc(C(C)(C)C)nn12 [Example 0801] — higher, 3.95
- CC(C)NC(=O)/C=C/c1c(-c2ccccc2Cl)nc2sc(C(C)(C)C)nn12 [Example 0802] — within 0.2 log units, 3.33
- CCC(C)NC(=O)/C=C/c1c(-c2ccccc2Cl)nc2sc(C(C)(C)C)nn12 (stereo not drawn) [Example 0803] — higher, 3.67
- CC(C)(C)CCNC(=O)/C=C/c1c(-c2ccccc2Cl)nc2sc(C(C)(C)C)nn12 [Example 0805] — higher, 4.4
- CC(C)(C)c1nn2c(/C=C/C(=O)NC3CC3)c(-c3ccccc3Cl)nc2s1 [Example 0807] — lower, 3.07
- CC(C)(C)c1nn2c(/C=C/C(=O)NC3CCC3)c(-c3ccccc3Cl)nc2s1 [Example 0808] — higher, 3.52
- CC(C)(C)c1nn2c(/C=C/C(=O)NC3CCCC3)c(-c3ccccc3Cl)nc2s1 [Example 0809] — higher, 4.12
- CC(C)(C)c1nn2c(/C=C/C(=O)NC3CCCCC3)c(-c3ccccc3Cl)nc2s1 [Example 0810] — higher, 3.79
- CC(C)(C)c1nn2c(/C=C/C(=O)Nc3ccc(Cl)cc3)c(-c3ccccc3Cl)nc2s1 [Example 0811] — higher, 4.72
